Results on four compounds are retold here after US20230233583A1, “USE OF PHYTOCANNABINOIDS FOR TREATING MULTIPLE MYELOMA” (priority 2020, published 2023).

One series deals with SKO. Briefly: MTT cytotoxicity assay in SKO MM cell line. The following applies: for IC50: Homo sapiens, 72 h, read-out: IC50 (μM) ± S.D.; for % VIABILITY ± S.D.: SKO, daily, 72 hours, vs vehicle. On the procedure:
(§1) MTT cytotoxicity assay: MM cell lines (4×10^4 cells/ml) were seeded in 96-well plates, in a final volume of 100 μl/well. After 24 hours, CBG, CBC, CBN, CBDV alone and in combination or vehicle were added at different concentrations, for 72 hours. At least six replicates were used for each treatment. At the indicated time point, cell viability was assessed by adding 0.8 mg/ml of 3-[4,5-dimethylthiazol-2-yl]-2,5 diphenyl tetrazolium bromide (MTT) (Sigma-Aldrich) to the media. After 3 hours, the plates were centrifuged, the supernatant was removed, and the pellet was solubilized with 100 μl/well dimethyl sulfoxide (DMSO). The absorbance of the samples against a background control (medium alone) was measured at 570 nm using an ELISA reader microliter plate (BioTek™ Instruments, Winooski, Vt., USA).
(§2) Cells were treated with different doses of CBG, CBC, CBN and CBDV (up to 100 μM) and percentage of cell viability was evaluated by the MTT assay.
(§3) The cannabinoids were administered daily for 72 hours, as in previous experiments at the desired doses. Each combination was evaluated in six wells and in two separate experiments. MTT assay was used to analyze the cell cytotoxicity. The values in the tables are represented as % of cell viability compared to vehicle-treated cells.
In general terms: Tetrazolium assays rely on reduction of a dye to a coloured formazan, in cell work by metabolically active cells.

The next series has as its system U266. Kind of series: MTT cytotoxicity assay in U266 MM cell line. The following applies: for IC50: Homo sapiens, U-266, 72 h, read-out: IC50 (μM) ± S.D.; for % VIABILITY ± S.D.: daily, 72 hours, vs vehicle. How it is done: as §1, §2, §3
Another series relates to RPMI. Kind of series: Invasion assay in co-culture of HuOB and RPMI. Particulars: for effect on MM cell invasion, in words: RPMI in co-culture with HuOB, 24 hours. It counts as cell-based, human. How it is done:
Invasion assay: HuOB cells (1.5×10^4) were plated on the surface of Matrigel in a BioCoat™ Matrigel® Invasion Chamber, 8.0 μm PET Membrane (Coming®, cod. 354480) and incubated for two days. After, U266 and RPMI (2.5×10^4) were pre-stained with Calcein (1 μM) for two hours, then treated with CBG (12.5 μM), CBC (12.5 μM), CBN (12.5 μM) and CBDV (6.25 μM) and added in the chambers. MM cells with HuOB, untreated, were used as invasion positive control, MM cells without HuOB cells were used as negative control. After 24 hours, the number of MM cells that invaded the Matrigel were analysed via fluorescent microscope. Eight 10× sections images were counted for each chamber.
Invasion assay in co-culture of HuOB and MM cell lines: This study evaluated the effect of phytocannabinoids in reducing the invasion of MM cell lines toward HuOB. HuOB were plated on the surface of Matrigel in the BioCoat™ Matrigel® Invasion Chamber, 8.0 μm PET Membrane (Corning®, cod. 354480) and incubated for two days. After, U266 or RPMI were pre-stained with Calcein (10 μM) for two hours, then treated with CBG (25 μM), CBC (25 μM), CBN (25 μM) and CBDV (12.5 μM) and added in the chambers. MM cells with HuOB, untreated, were used as an invasion positive control, MM cells without HuOB cells were used as a negative control. After 24 hours, the number of MM cells that invaded the Matrigel were analysed via fluorescent microscope. Eight 10× sections images were counted for each chamber.

Series [1] deals with H2AX levels in MM cell lines. Kind of series: Western blot analysis for H2AX. Particulars: 48 hours, daily; CBG, CBN, CBDV 25 μM, CBC 75 μM. In kind it is cell-based, human. How it is done:
4×10^4 cells were plated in 6 well plates and treated for 48 hours with daily administration of CBG (25 μM; FIG. 17), CBC (75 μM; FIG. 18), CBN (25 μM; FIG. 19) or CBDV (25 μM; FIG. 20). Densitometric analysis was carried out by evaluating two independent experiments by a Chemidoc using the Quantity One software (BioRad, Hercules, USA). H2AX densitometry values were normalized to GAPDH used as loading control and normalized with non-treated cells. Densitometric values shown are the mean±SE of two separate experiments.
Western blot analysis for H2AX: 4×10^4 cells were plated in 6-well plates and treated daily for 48 hours with CBG, CBN or CBDV (25 μM) or CBC (75 μM). Ten micrograms of the myeloma cell line lysates were then separated on a SDS-polyacrylamide gel, transferred onto Hybond-C extra membranes (GE Healthcare), blocked with 5% of Bovine Serum Albumin (BSA) in phosphate buffered saline (PBS)-Tween 20, immunoblotted with rabbit anti-phospho-histone H2AX (Ser139) (1:1000, #9718, Cell Signaling) and rabbit anti-glyceraldehyde-3-phosphate dehydrogenase (GAPDH, 1:3000, #2118, OriGene, Rockville, Md., USA) antibodies incubated overnight and then incubated with their respective HRP-conjugated anti-rabbit (1:2000, Cell Signaling) antibodies for 1 hour. The detection was performed using the LiteAblot™ PLUS or the LiteAblot™ TURBO (EuroClone, Milano, Italy) kits and densitometric analysis was carried out by evaluating three independent experiments by a Chemidoc using the Quantity One software (BioRad, Hercules, USA). H2AX densitometry values were normalized to GAPDH used as loading control and normalized with non-treated cells. Densitometric values shown are the mean±SE of three separate experiments.
Phytocannabinoids induce necrotic cell death in MM cell lines: To evaluate the cytotoxic mechanism induced by the phytocannabinoids, MM cell lines were treated daily with a cytotoxic dose for each phytocannabinoid (CBG: 25 μM; CBC 75 μM; CBN 25 μM; CBDV 25 μM) for 48 hours and then Annexin-V/PI cell positivity was evaluated by FACS analysis. The results evidenced that all of the phytocannabinoids induced necrotic cell death but had different efficacies (FIGS. 5-16). To confirm the necrotic cell death mechanism, MM cell lines were treated as above and DNA damage was evaluated by H2AX (a marker to examine the DNA damage produced and the subsequent repair of the DNA lesion) Western blot analysis and Comet assay (permits the analysis of DNA damage in single cell preparations). The result confirmed the DNA damage induced by the phytocannabinoid analysed. In particular, an increase of H2AX levels were observed by Western blot (FIGS. 17-20) and DNA damage by Comet assay that evidenced structures resembling comets in the treated cell lines (FIGS. 21-24).

[2] abbreviates: single phytocannabinoid 12.5 μM.
Where [3] appears, read: U266, single phytocannabinoid 12.5 μM.
[4] abbreviates: U266, single phytocannabinoid 25 μM.

The structures appear in SMILES notation.

Turning to `CCCCCc1cc(O)c2c(c1)OC(C)(CCC=C(C)C)C=C2` (stereo not shown) [CBC, 2-methyl-2-(4-methylpent-3-enyl)-7-pentylchromen-5-ol], the half-inhibitory concentration (IC50) (commonly the concentration needed to halve the response being measured) with SKO came out at 69.7 ± 3.5 µM; with U266 it was 78.8 ± 3.4 µM. Also, the “% VIABILITY ± S.D.” value with SKO (setting [2]) amounted to 96.5 ± 6.7%; with SKO (single phytocannabinoid 25 μM), 94.3 ± 6.3%; in the series with U266 (setting [3]), 106.2 ± 3.5%; in the series on U266 (setting [4]), 101.2 ± 7.2%. In the series on RPMI, the “AVERAGE OF CELLS/square (MM cells that invaded the Matrigel)” value (“AVERAGE OF CELLS/square” below) turned out to be 29.3 ± 1.7 CELLS/square. Also, the “H2AX levels by Western blot, in words” value in series [1] is reported as “increased H2AX levels”.
For the compound `C=C(C)[C@@H]1CCC(C)=C[C@H]1c1c(O)cc(CCC)cc1O` [CBDV, 2-[(1R,6R)-3-methyl-6-prop-1-en-2-ylcyclohex-2-en-1-yl]-5-propylbenzene-1,3-diol], the 50% inhibitory concentration (IC50) with SKO is 26.5 ± 2.1 µM; in the series on U266 it was 26.7 ± 1.3 µM. Also, the “% VIABILITY ± S.D.” value with SKO (setting [2]) came out at 82.1 ± 5.2%; in the series with SKO (single phytocannabinoid 25 μM) it was 54.6 ± 4.4%; with U266 (setting [3]) it was 88.6 ± 7.2%; with U266 (setting [4]) it was 76.2 ± 6.5%. For the same compound, the “AVERAGE OF CELLS/square” value in the series with RPMI is 35.6 ± 2.4 CELLS/square. The “H2AX levels by Western blot, in words” value in series [1] was “increased H2AX levels”.
Consider `CCCCCc1cc(O)c(C/C=C(\C)CCC=C(C)C)c(O)c1` [CBG, 2-[(2E)-3,7-dimethylocta-2,6-dienyl]-5-pentylbenzene-1,3-diol], for which the results for the IC50 in the series on SKO and in the series on U266 were 35 ± 1.8 µM and 35.9 ± 2.2 µM, respectively. The “% VIABILITY ± S.D.” value in the series on SKO (setting [2]) was found to be 105.4 ± 4.4%; in the series with SKO (single phytocannabinoid 25 μM) it was 84.6 ± 5.5%; with U266 (setting [3]), 97.4 ± 6.5%; in the series with U266 (setting [4]), 87.7 ± 5.8%. For the same compound, in the series with RPMI, the “AVERAGE OF CELLS/square” value was 1.6 ± 0.2 CELLS/square. Further, in the series on RPMI, the “effect on MM cell invasion, in words” value is “higher activity”. The “H2AX levels by Western blot, in words” value in series [1] is on record as “increased H2AX levels”.
Consider `CCCCCc1cc(O)c2c(c1)OC(C)(C)c1ccc(C)cc1-2` [CBN, 6,6,9-trimethyl-3-pentylbenzo[c]chromen-1-ol], for which the IC50 was 28.5 ± 2.2 µM in the series with SKO and 26.5 ± 1.8 µM with U266. Further, the “% VIABILITY ± S.D.” value with SKO (setting [2]) stood at 89.2 ± 5.9%; in the series with SKO (single phytocannabinoid 25 μM) it was 60.6 ± 3.8%; with U266 (setting [3]), 89.6 ± 6.6%; in the series on U266 (setting [4]), 61.1 ± 4.8%. Moreover, in the series on RPMI, the “AVERAGE OF CELLS/square” value is recorded as 3.3 ± 0.1 CELLS/square. Moreover, the “effect on MM cell invasion, in words” value with RPMI is “higher activity”. Besides, the “H2AX levels by Western blot, in words” value in series [1] is listed as “increased H2AX levels”.
